Test results from US10654866B2, “Selective estrogen receptor degraders” (Eli Lilly and Company, priority 2018, dated 2020).

How the values were obtained:
Format in all cases: cell-based
[1] = target: T1, ERα (Homo sapiens (Human), UniProt P03372); assay: ERα degradation assay in MCF7 cells; settings: 24 hours, % ER positive cells, read-out: Relative IC50
Protocol: The purpose of the following ERα degradation assay is to measure the degradation of ERα by a test compound in an ERα positive breast cancer cell line such as MCF7.
Culture MCF7 (purchased from ATCC HTB-22) cells in DMEM media supplemented with 10% FBS, 0.01 mg/mL human insulin 1 and 1% penicillin/streptomycin antibiotics and plate in 384-well flat-bottom plates at a density of 4,000 cells per well in phenol red free DMEM media (20 μL) containing 10% charcoal stripped FBS. Incubate the cells overnight in a cell culture incubator (5% CO2, 95% relative humidity and 37° C.) and allow the cells to attach to the plate. The following day dose the cells with the test compound. Use an Echo 555 acoustic dispenser to prepare test compound serial dilutions (1:3) in a range from 6 μM to 0.0003 μM. Dose the cells with the addition of 5 μL from the serial dilution plate to the cell plate producing a final DMSO concentration of 0.2% with a final test compound concentration dose range between 2 and 0.0001 μM. For the maximum point, use media containing 0.2% of DMSO and for the minimum point, use fulvestrant diluted at 2 μM final concentrations in the growth media containing 0.2% DMSO. After dosing with the test compound, incubate the cell plates at 37° C. and 5% CO2 for 24 hours. Fix the cells by adding 14% para-formaldehyde (10 μL) for 30 minutes at room temperature. Wash the cells once with PBS (20 μL) and incubate with PBS (20 μL) containing 0.5% (v/v) TWEEN® 20 for 1 hour. Wash the cells with PBS containing 0.05% TWEEN® 20 (2×) and block with 3% BSA in PBS containing 0.05% TWEEN® 20 and 0.1% TRITON™ X-100 (20 μL/well) for 1 hour at room temperature. Add 1:500 Primary antibody (20 μL) (ERα (Clone SP1) monoclonal rabbit antibody # RM-9101-S, Thermo Scientific) dilution in 1% BSA in PBS containing 0.05% TWEEN® 20 per well, seal the plates and incubate overnight at 4° C. The following day wash the cells with PBS containing 0.05% TWEEN® 20 (2×) and incubate with secondary antibody (20 μL/well) (1:1000 dilution, Goat anti-rabbit IgM ALEXA FLUOR™ 488) in PBS 1% BSA for 105 minutes at room temperature. […] Seal the plates and incubate 1 hour at room temperature on the bench (preserved from light). Scan the plates with ACUMEN EXPLORER™ [Laser-scanning fluorescence microplate cytometer manufactured by TTP LABTECH LTD] to measure ERα. Image analysis is based on cellular fluorescent signals for identifying positive cells. Identify ER positive cells by mean intensity. Use total intensity at 575-640 nm from propidium iodide/DNA to identify individual cells. Assay output is % ER positive cells. Determine the IC50 by curve fitting to a four parameter logistic for each output using GENE DATA™.

[2] = target: Y537N mutant ERα receptor (Homo sapiens, UniProt P03372, Y537N); assay: PRα inhibition (ERα functional antagonism) cell assay in MCF7-ESR1 Y537N 682 CRISPR cells; settings: MCF7 Y537N 682 CRISPR cells, 72 hours, % PR positive cells; read-out: Relative IC50
Protocol: An antagonist in this assay is expected to block the function of the ERα receptor.
Incubate the cells overnight in a cell culture incubator (5% CO2, 95% relative humidity and 37° C.) and allow the cells to attach to the plate. The following day dose the cells with the test compound. Use an Echo 555 acoustic dispenser to prepare compound serial dilutions (1:3) in a range from 6 μM to 0.0003 μM. Dose the cells with the addition of 5 μL from the serial dilution plate to the cell plate producing a final DMSO concentration of 0.2% with a final test compound concentration dose range between 2 and 0.0001 μM. For the maximum point use media containing 0.2% of DMSO and for the minimum point, use fulvestrant diluted at 2 μM final concentrations in the growth media containing 0.2% DMSO. After dosing with test compound, incubate the cell plates at 37° C. and 5% CO2 for 72 hours. Fix the cells by adding 14% para-formaldehyde (10 μL) for 30 minutes at room temperature. Wash the cells with PBS (1×20 μL) and incubate with PBS (20 μL) of containing 0.5% (v/v) TWEEN® 20 for 1 hour. Wash the cells with PBS (2×20 μL) 0.05% TWEEN® 20, and block with 3% BSA/PBS 0.05% TWEEN® 20, 0.1% TRITON™ X-100 (20 μL/well) for 1 hour at room temperature. Add 1:500 primary antibody (20 μL) (PR monoclonal mouse anti-human antibody, clone PgR 636 Dako, M3569) dilution in 1% BSA/PBS 0.05 TWEEN® 20 per well, seal the plates and incubate overnight at 4° C.
The following day, wash the cells with PBS […] (2×20 μL) and incubate with secondary antibody (20 μL/well) (1:1000 dilution, Goat anti-rabbit IgM ALEXA FLUOR™ 488) in PBS 1% BSA for 105 minutes at room temperature. […] Seal the plates and incubate 1 hour at room temperature on the bench (preserved from light). Scan the plates with ACUMEN EXPLORER™ [Laser-scanning fluorescence microplate cytometer manufactured by TTP LABTECH LTD] to measure PRα. Image analysis is based on cellular fluorescent signals for identifying positive cells. Identify PR positive cells by mean intensity. Use total intensity at 575-640 nm from propidium iodide/DNA to identify individual cells. Assay output is % PR positive cells. Determine the IC50 by curve fitting to a four parameter logistic for each output using GENE DATA™.

[3] = target: T1, ERα; assay: PRα inhibition (ERα functional antagonism) cell assay in MCF7 cells; settings: MCF7 cells pretreated with 0.47 nM estradiol, % PRα positive cells; read-out: Relative IC50
Description: The purpose of the following PRα inhibition (ERα functional antagonism) cell assay is to determine the antagonistic activity of a test compound against the ERα receptor. An antagonist in this assay is expected to block the function of the ERα receptor.
Carry out the assay conditions as detailed in the ERα degradation Cell base Acumen assay above, using the MCF7 cell line except that, prior to test compound dispensing, remove the media from the cell plate and pretreat all wells except for the negative control wells (column 24 of the plate) with assay media containing 0.47 nM estradiol for 30 minutes. In this assay, carry out immunostaining for the detection of PRα and scan the plates with ACUMEN EXPLORER™ [Laser-scanning fluorescence microplate cytometer manufactured by TTP LABTECH LTD] to measure PRα. Image analysis is based on cellular fluorescent signals for identifying positive cells. Identify PRα positive cells by mean intensity. Use total intensity at 575-640 from propidium iodide/DNA to identify individual cells. Assay output is % PRα positive cells. Determine the IC50 by curve fitting to a four parameter logistic for each output using GENE DATA™.

T1 sequence (P03372 whole entry): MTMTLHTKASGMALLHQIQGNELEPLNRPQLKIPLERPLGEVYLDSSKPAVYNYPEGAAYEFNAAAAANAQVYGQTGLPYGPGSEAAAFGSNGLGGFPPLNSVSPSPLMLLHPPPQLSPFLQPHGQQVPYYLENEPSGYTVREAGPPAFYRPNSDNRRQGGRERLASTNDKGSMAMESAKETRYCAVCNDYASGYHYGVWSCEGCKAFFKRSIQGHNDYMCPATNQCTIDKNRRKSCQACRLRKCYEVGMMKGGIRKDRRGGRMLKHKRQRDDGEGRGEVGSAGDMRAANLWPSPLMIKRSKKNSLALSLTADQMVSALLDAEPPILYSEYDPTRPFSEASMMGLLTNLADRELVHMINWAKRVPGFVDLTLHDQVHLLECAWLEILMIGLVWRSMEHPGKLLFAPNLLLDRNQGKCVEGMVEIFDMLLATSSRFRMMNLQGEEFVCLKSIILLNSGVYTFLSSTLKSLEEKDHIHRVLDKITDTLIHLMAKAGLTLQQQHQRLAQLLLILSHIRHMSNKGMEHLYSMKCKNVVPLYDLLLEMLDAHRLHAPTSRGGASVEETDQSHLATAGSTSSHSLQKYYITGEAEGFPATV

DC50 [1]: 9.62 ± 5.2 nM | IC50 [2]: 8.93 ± 3.83 nM | IC50 [3]: 48.5 ± 29.4 nM
SMILES: Cc1cccc2c1OC(c1ccc(OCCN3CC(CF)C3)cc1)c1c-2cnc2cc(O)ccc12 (single isomer, unassigned) [Example 8B, 5-(4-{2-[3-(Fluoromethyl)azetidin-1-yl]ethoxy}phenyl)-7-methyl-5H-[1]benzopyrano[4,3-c]quinolin-2-ol]
